Here are results for two compounds from publication PMC7614227, “Structural Basis of Mammalian Respiratory Complex I Inhibition by Medicinal Biguanides” (Science (New York, N.Y.), 2023).

The target of assay [1] is T1, complex I catalysis in bovine heart mitochondrial membranes (Bos taurus, UniProt P03887+P03898+P17694+P42026).
T1 construct: Fresh cow hearts were purchased from an abattoir; tissue C; Humphreys and Sons, Chelmsford, U.K. (abattoir); host or cells: bovine heart mitochondrial membranes
The assay is described as follows: NADH:O2 oxidoreduction by bovine heart mitochondrial membranes. The format is biochemical.

Assay [2] has as its system mitochondrial glycerophosphate dehydrogenase (mGPD). The following applies: cited from earlier work.
In assay [3] the test system is T2, complex I in bovine heart mitochondrial membranes.
T2 construct: Fresh cow hearts were purchased from an abattoir; tissue C; Humphreys and Sons, Chelmsford, U.K. (abattoir); host or cells: bovine heart mitochondrial membranes
As to the kind of experiment: NEM sensitivity of NADH:O2 activity (active/deactive ratio). In kind it is biochemical. The following applies: as-prepared membranes incubated with 200 μM IM1092 and NEM at 4 °C. On the procedure:
(§1) and filtered (0.2 µM). The complexes were then separated by ion-exchange chromatography (Q-
(§2) Sepharose, GE Healthcare, as described previously (62)) and complex I-containing fractions
(§3) pooled and concentrated using a 50 kDa MWCO spin column (Merck Millipore). The samples
(§4) were clarified using a Spin-X 0.22 µm centrifugal filter (Corning) then applied to a Superose 6
(§5) Increase 5/150 (inhibitor-free dataset) or 10/300 column (biguanide-inhibited dataset) (GE
(§6) Healthcare) and eluted in 20 mM Tris-HCl (pH 7.14 at 20 ° C), 150 mM NaCl and 0.05% DDM.
(§7) Complex I elutes as a monodisperse peak at ~ 1.6 or 13 mL from the superose 6 increase 5/150 or
(§8) 10/300 columns, respectively (Fig. S3). The peak fractions for the biguanide-inhibited dataset were
(§9) concentrated using a 50 kDa MWCO spin column (Merck Millipore) and the protein concentration
(§10) quantified using a nanodrop UV-vis spectrophotometer (e280 = 0.2 mg-1 mL); IM1092 was then […]
(§11) µg of purified complex I was reduced with 10 mM dithiothreitol and analyzed on a Novex Tris- […]
(§12) NADH:O2 oxidoreduction by membranes was measured at 10 µg-protein mL-1 using 200 μM […]
(§13) assays. NADH:decylubiquinone (NADH:DQ) oxidoreduction by complex I was measured at 0.5 […]
(§14) measured by linear regression of the maximal slope and quantified by the absorbance of NADH at […]
(§15) was determined to evaluate the active/deactive ratio by incubating the membranes (2 mg-protein […]

Assay [4] has as its target T3, detergent-solubilized, purified bovine complex I (Bos taurus, UniProt P03887+P03898+P17694+P42026).
T3 construct: from tissue; host or cells: bovine heart mitochondrial membranes, solubilized in DDM, Q-Sepharose and Superose 6 chromatography
The assay is described as follows: NADH:decylubiquinone (NADH:DQ) oxidoreduction by purified complex I. The format is biochemical. On the procedure: as §1, §2, §3, §4, §5, §6, §7, §8, §9, §10, §11, §12, §13, §14, §15

Another assay deals with HEPG2 C3A cells. The assay is described as follows: Cellular oxygen consumption (Seahorse XFe96, rotenone-sensitive OCR). In kind it is cell-based. As to the method:
from the weighed sample (1.15 mg) and solvent (0.78956g) masses of 4.31 mM, implying a purity of 93%. The proton NMR spectrum is consistent with the presented chemical structure and with the described shifts for this compound (27). The shifts observed here were ¹H NMR (DMSO, 400 […]
Cellular oxygen consumption measurements
HEPG2 C3A (ATCC CRL10741) cells were a kind gift from AstraZeneca and were authenticated by STR profiling (Eurofins). Cells were grown in Dulbecco's modified Eagle's medium (DMEM, Thermo Fisher Scientific) containing 10 mM glucose supplemented with 10% fetal bovine serum (Thermo Fisher Scientific) at 37 °C in 5% CO2. Per well, 2×10^4 cells were plated into an XFe96 (Agilent) cell plate and incubated for 24 h at 37 °C in 5% CO2. […] OCRs (oxygen consumption rates) were measured in a XFe96 Seahorse extracellular flux analyzer; 2 μM rotenone was used to inhibit complex I at the end of the assay. To calculate the normalized rotenone-sensitive OCR rates, the rotenone-insensitive rates (determined at the end of the experiment) were subtracted, and the traces normalized to 100% at the measurement before IM1092 addition. […] IC50 values were calculated using the normalized rates, following 6 hours of incubation […]

The mark [5] stands for this setting: Fig. 1B, membranes of differing deactive complex I content, 1st labelled value (deactive content not given).
The mark [6] stands for this setting: Fig. 1B, membranes of differing deactive complex I content, 2nd labelled value (deactive content not given).
Where [7] appears, read: Fig. 1B, membranes of differing deactive complex I content, 3rd labelled value (deactive content not given).
The mark [8] stands for this setting: Fig. 1C, pH 9D(i): pH 9 deactivated membranes with antimycin A and AOX.
Setting [9] is: Fig. 1C, pH 9D: pH 9 deactivated membranes.

pIC50: −log10 of the molar value.

On to `CN(C)C(=N)N=C(N)N` [Metformin, metformin, reference compound], for which the pIC50 in assay [1] (setting [5]) is 1.00; in assay [1] (setting [6]), 1.28; in assay [1] (setting [7]) it was 1.48; in assay [1] (Fig. 1C, pH 8) it was 1.42; in assay [1] (Fig. 1C, pH 9), 2.05; in assay [1] (setting [8]), 2.10. Also, the pIC50 in assay [1] (setting [9]) was 1.82. Further, the “inhibition of human mGPD” value in assay [2] was “not to inhibit”.

As to `N=C(N=C(N)N)NCCc1ccc(I)c(Cl)c1` [IM1092], the negative logarithm of the IC50 (pIC50) in assay [1] (setting [5]) was 4.49; in assay [1] (setting [6]) it was 4.70; in assay [1] (setting [7]), 5.40; in assay [1] (Fig. 1C, pH 6), 4.37; in assay [1] (Fig. 1C, pH 7) it was 4.57; in assay [1] (Fig. 1C, pH 8) it was 4.68. The pIC50 in assay [1] (Fig. 1C, pH 9) is 5.40; in assay [1] (setting [8]), 6.09; in assay [1] (setting [9]) it was 6.07; in assay [4] (catalysis of detergent-solubilized, purified bovine complex I (NADH:DQ)) it was 4.07. For the same compound, in assay [3], the “deactive content of membranes” value was “essentially the same deactive content as biguanide-free controls”. Besides, the “control catalytic rate recovered after dilution into inhibitor-free assay buffer” value in assay [4] (complex I incubated with 350 μM IM1092 as for cryo-EM grids, then diluted, reversibility) came out at 98%. Further, in the assay on HEPG2 C3A cells, the “effect on cellular oxygen consumption” value was “inhibits cellular oxygen consumption”.
